Reference: ChEMBL document CHEMBL5727746, “Benzothiazol compounds and methods using the same for treating neurodegenerative disorders” (2020)
pIC50: −log10 of the molar value.

Target: Mast/stem cell growth factor receptor Kit (Homo sapiens, UniProt P10721)
Assay: Magnesium chloride (MgCl2), Manganese(II) chloride (MnCl2), Bovine serum albumin (BSA) and dimethylsulfoxide (DMSO) were purchased from Sigma-Aldrich.

Mast/stem cell growth factor receptor Kit, sequence (P10721 whole entry): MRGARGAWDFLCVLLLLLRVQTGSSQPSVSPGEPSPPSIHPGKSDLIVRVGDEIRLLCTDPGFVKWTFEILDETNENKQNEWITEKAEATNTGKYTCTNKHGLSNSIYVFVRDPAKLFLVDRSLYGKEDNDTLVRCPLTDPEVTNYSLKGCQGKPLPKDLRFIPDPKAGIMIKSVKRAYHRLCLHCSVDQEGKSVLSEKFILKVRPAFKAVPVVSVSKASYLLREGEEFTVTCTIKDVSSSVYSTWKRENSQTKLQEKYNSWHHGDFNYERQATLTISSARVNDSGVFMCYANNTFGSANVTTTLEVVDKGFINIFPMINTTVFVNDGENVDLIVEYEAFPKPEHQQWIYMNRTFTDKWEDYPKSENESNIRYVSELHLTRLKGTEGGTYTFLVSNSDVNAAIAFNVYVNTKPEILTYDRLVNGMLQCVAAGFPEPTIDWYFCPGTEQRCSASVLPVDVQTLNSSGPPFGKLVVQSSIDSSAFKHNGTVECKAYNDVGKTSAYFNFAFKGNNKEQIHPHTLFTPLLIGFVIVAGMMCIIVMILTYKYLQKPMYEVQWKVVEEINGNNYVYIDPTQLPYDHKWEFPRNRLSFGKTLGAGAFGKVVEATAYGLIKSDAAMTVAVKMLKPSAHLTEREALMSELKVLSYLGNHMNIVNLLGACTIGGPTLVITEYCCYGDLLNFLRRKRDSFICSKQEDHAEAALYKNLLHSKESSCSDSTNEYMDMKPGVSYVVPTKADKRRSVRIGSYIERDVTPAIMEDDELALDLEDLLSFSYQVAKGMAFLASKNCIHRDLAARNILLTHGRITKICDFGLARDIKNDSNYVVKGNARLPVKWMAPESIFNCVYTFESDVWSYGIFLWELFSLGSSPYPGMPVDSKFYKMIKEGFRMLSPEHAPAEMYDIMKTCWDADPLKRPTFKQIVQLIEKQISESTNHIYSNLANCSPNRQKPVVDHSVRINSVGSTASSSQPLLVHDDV

## Cc1ccc2c(c1-c1ccc3nc(NC(=O)[C@@H]4C[C@@H]4F)sc3c1)CCN2
  pIC50: < 5.00
